Measured values as given in ChEMBL document CHEMBL5252552, “Defined concatenated α6α1β3γ2 GABAA receptor constructs reveal dual action of pyrazoloquinolinone allosteric modulators” (Bioorg Med Chem, 2019).

Assays:
[1] = target: T1, Gamma-aminobutyric acid receptor subunit alpha-1/alpha-6/beta-3/gamma-2 (Rattus norvegicus) (UniProt P18508+P30191+P62813+P63079); assay: Positive allosteric modulation of rat recombinant GABAA gamma2beta3alpha1-beta3alpha6 receptor expressed in Xenopus laevis oocytes assessed as maximal efficacy at -80 mV holding potential at 3 uM in presence of GABA EC1 to 1.5 by two-electrode voltage-clamp assay; assay type: cell-based; conditions: Oocyte, filed as positive allosteric modulator
[2] = target: T2, Gamma-aminobutyric acid receptor subunit alpha-6/beta-3/gamma-2 (Rattus norvegicus, UniProt P18508+P30191+P63079); assay: Positive allosteric modulation of rat recombinant GABAA alpha6beta3gamma2 receptor expressed in Xenopus laevis oocytes assessed as increase in GABA-induced current amplitude at -80 mV holding potential under more potent phase in presence of GABA EC1 to 1.5 by two-electrode voltage-clamp assay; assay type: cell-based, Oocyte
[3] = target: T1, Gamma-aminobutyric acid receptor subunit alpha-1/alpha-6/beta-3/gamma-2 (Rattus norvegicus); assay: Positive allosteric modulation of rat recombinant GABAA gamma2beta3alpha1-beta3alpha6 receptor expressed in Xenopus laevis oocytes assessed as maximal current at -80 mV holding potential under less potent phase in presence of GABA EC1 to 1.5 by two-electrode voltage-clamp assay relative to control; assay type: cell-based; conditions: Oocyte, filed as positive allosteric modulator
[4] = target: T1, Gamma-aminobutyric acid receptor subunit alpha-1/alpha-6/beta-3/gamma-2 (Rattus norvegicus); assay: Positive allosteric modulation of rat recombinant GABAA gamma2beta3alpha1-beta3alpha6 receptor expressed in Xenopus laevis oocytes assessed as maximal current at -80 mV holding potential under more potent phase in presence of GABA EC1 to 1.5 by two-electrode voltage-clamp assay relative to control; assay type: cell-based; conditions: Oocyte
[5] = target: T3, Gamma-aminobutyric acid receptor subunit alpha-1/beta-3/gamma-2 (Rattus norvegicus) (UniProt P18508+P62813+P63079); assay: Positive allosteric modulation of rat recombinant GABAA alpha1beta3alpha1-gamma2beta3 receptor expressed in Xenopus laevis oocytes assessed as maximal current at -80 mV holding potential under less potent phase in presence of GABA EC1 to 1.5 by two-electrode voltage-clamp assay relative to control; assay type: cell-based; conditions: Oocyte, filed as positive allosteric modulator
[6] = target: T4, Gamma-aminobutyric acid receptor subunit alpha-6/beta-3/gamma-2 (Rattus norvegicus) (UniProt P18508+P30191+P63079); assay: Positive allosteric modulation of rat recombinant GABAA alpha6beta3alpha6-gamma2beta3 receptor expressed in Xenopus laevis oocytes assessed as maximal efficacy at -80 mV holding potential at 3 uM in presence of GABA EC1 to 1.5 by two-electrode voltage-clamp assay; assay type: cell-based; conditions: Oocyte, filed as positive allosteric modulator
[7] = target: T4, Gamma-aminobutyric acid receptor subunit alpha-6/beta-3/gamma-2 (Rattus norvegicus); assay: Positive allosteric modulation of rat recombinant GABAA alpha6beta3alpha6-gamma2beta3 receptor expressed in Xenopus laevis oocytes assessed as maximal efficacy at -80 mV holding potential at 100 nM in presence of GABA EC1 to 1.5 by two-electrode voltage-clamp assay; assay type: cell-based; conditions: Oocyte, filed as positive allosteric modulator
[8] = target: T4, Gamma-aminobutyric acid receptor subunit alpha-6/beta-3/gamma-2 (Rattus norvegicus); assay: Positive allosteric modulation of rat recombinant GABAA alpha6beta3alpha6-gamma2beta3 receptor expressed in Xenopus laevis oocytes assessed as maximal efficacy at -80 mV holding potential at 30 nM in presence of GABA EC1 to 1.5 by two-electrode voltage-clamp assay; assay type: cell-based; conditions: Oocyte, filed as positive allosteric modulator
[9] = target: T5, Gamma-aminobutyric acid receptor subunit alpha-1/beta-3/gamma-2 (Rattus norvegicus, UniProt P18508+P62813+P63079); assay: (§1) Positive allosteric modulation of rat recombinant GABAA alpha1beta3gamma2 receptor expressed in Xenopus laevis oocytes assessed as increase in GABA-induced current amplitude at -80 mV holding potential under less potent phase in presence of GABA EC1 to 1.5 by two-electrode voltage-clamp assay; assay type: cell-based, Oocyte
[10] = target: T3, Gamma-aminobutyric acid receptor subunit alpha-1/beta-3/gamma-2 (Rattus norvegicus); assay: Positive allosteric modulation of rat recombinant GABAA alpha1beta3alpha1-gamma2beta3 receptor expressed in Xenopus laevis oocytes assessed as maximal efficacy at -80 mV holding potential at 3 uM in presence of GABA EC1 to 1.5 by two-electrode voltage-clamp assay; assay type: cell-based; conditions: Oocyte, filed as positive allosteric modulator
[11] = target: T1, Gamma-aminobutyric acid receptor subunit alpha-1/alpha-6/beta-3/gamma-2 (Rattus norvegicus); assay: Positive allosteric modulation of rat recombinant GABAA gamma2beta3alpha1-beta3alpha6 receptor expressed in Xenopus laevis oocytes assessed as maximal efficacy at -80 mV holding potential at 30 uM in presence of GABA EC1 to 1.5 by two-electrode voltage-clamp assay; assay type: cell-based; conditions: Oocyte, filed as positive allosteric modulator
[12] = target: T4, Gamma-aminobutyric acid receptor subunit alpha-6/beta-3/gamma-2 (Rattus norvegicus); assay: Positive allosteric modulation of rat recombinant GABAA alpha6beta3gamma2 receptor expressed in Xenopus laevis oocytes assessed as maximal current at -80 mV holding potential under more potent phase in presence of GABA EC1 to 1.5 by two-electrode voltage-clamp assay relative to control; assay type: cell-based; conditions: Oocyte, filed as positive allosteric modulator
[13] = target: T4, Gamma-aminobutyric acid receptor subunit alpha-6/beta-3/gamma-2 (Rattus norvegicus); assay: Positive allosteric modulation of rat recombinant GABAA alpha6beta3gamma2 receptor expressed in Xenopus laevis oocytes assessed as maximal efficacy at -80 mV holding potential at 1 uM in presence of GABA EC1 to 1.5 by two-electrode voltage-clamp assay; assay type: cell-based; conditions: Oocyte, filed as positive allosteric modulator
[14] = target: T4, Gamma-aminobutyric acid receptor subunit alpha-6/beta-3/gamma-2 (Rattus norvegicus); assay: Positive allosteric modulation of rat recombinant GABAA alpha6beta3gamma2 receptor expressed in Xenopus laevis oocytes assessed as maximal efficacy at -80 mV holding potential at 100 nM in presence of GABA EC1 to 1.5 by two-electrode voltage-clamp assay; assay type: cell-based; conditions: Oocyte, filed as positive allosteric modulator
[15] = target: T3, Gamma-aminobutyric acid receptor subunit alpha-1/beta-3/gamma-2 (Rattus norvegicus); assay: Positive allosteric modulation of rat recombinant GABAA alpha1beta3alpha1-gamma2beta3 receptor expressed in Xenopus laevis oocytes assessed as maximal efficacy at -80 mV holding potential at 30 nM in presence of GABA EC1 to 1.5 by two-electrode voltage-clamp assay; assay type: cell-based; conditions: Oocyte
[16] = target: T3, Gamma-aminobutyric acid receptor subunit alpha-1/beta-3/gamma-2 (Rattus norvegicus); assay: Positive allosteric modulation of rat recombinant GABAA alpha1beta3alpha1-gamma2beta3 receptor expressed in Xenopus laevis oocytes assessed as maximal efficacy at -80 mV holding potential at 10 nM in presence of GABA EC1 to 1.5 by two-electrode voltage-clamp assay; assay type: cell-based; conditions: Oocyte
[17] = target: T1, Gamma-aminobutyric acid receptor subunit alpha-1/alpha-6/beta-3/gamma-2 (Rattus norvegicus); assay: Positive allosteric modulation of rat recombinant GABAA gamma2beta3alpha1-beta3alpha6 receptor expressed in Xenopus laevis oocytes assessed as maximal efficacy at -80 mV holding potential at 10 uM in presence of GABA EC1 to 1.5 by two-electrode voltage-clamp assay; assay type: cell-based; conditions: Oocyte, filed as positive allosteric modulator
[18] = target: T3, Gamma-aminobutyric acid receptor subunit alpha-1/beta-3/gamma-2 (Rattus norvegicus); assay: Positive allosteric modulation of rat recombinant GABAA alpha1beta3gamma2 receptor expressed in Xenopus laevis oocytes assessed as maximal efficacy at -80 mV holding potential at 30 uM in presence of GABA EC1 to 1.5 by two-electrode voltage-clamp assay; assay type: cell-based; conditions: Oocyte, filed as positive allosteric modulator
[19] = target: T3, Gamma-aminobutyric acid receptor subunit alpha-1/beta-3/gamma-2 (Rattus norvegicus); assay: Positive allosteric modulation of rat recombinant GABAA alpha1beta3alpha1-gamma2beta3 receptor expressed in Xenopus laevis oocytes assessed as maximal efficacy at -80 mV holding potential at 300 nM in presence of GABA EC1 to 1.5 by two-electrode voltage-clamp assay; assay type: cell-based; conditions: Oocyte
[20] = target: T3, Gamma-aminobutyric acid receptor subunit alpha-1/beta-3/gamma-2 (Rattus norvegicus); assay: Positive allosteric modulation of rat recombinant GABAA alpha1beta3gamma2 receptor expressed in Xenopus laevis oocytes assessed as maximal efficacy at -80 mV holding potential at 100 nM in presence of GABA EC1 to 1.5 by two-electrode voltage-clamp assay; assay type: cell-based; conditions: Oocyte
[21] = target: T3, Gamma-aminobutyric acid receptor subunit alpha-1/beta-3/gamma-2 (Rattus norvegicus); assay: Positive allosteric modulation of rat recombinant GABAA alpha1beta3gamma2 receptor expressed in Xenopus laevis oocytes assessed as maximal efficacy at -80 mV holding potential at 10 nM in presence of GABA EC1 to 1.5 by two-electrode voltage-clamp assay; assay type: cell-based; conditions: Oocyte
[22] = target: T5, Gamma-aminobutyric acid receptor subunit alpha-1/beta-3/gamma-2; assay: as §1, with “alpha1beta3alpha1-gamma2beta3” for “alpha1beta3gamma2”; assay type: cell-based, Oocyte
[23] = target: T2, Gamma-aminobutyric acid receptor subunit alpha-6/beta-3/gamma-2; assay: as §1, with “alpha6beta3alpha6-gamma2beta3” for “alpha1beta3gamma2”; assay type: cell-based, Oocyte

T5 sequence (P18508 whole entry): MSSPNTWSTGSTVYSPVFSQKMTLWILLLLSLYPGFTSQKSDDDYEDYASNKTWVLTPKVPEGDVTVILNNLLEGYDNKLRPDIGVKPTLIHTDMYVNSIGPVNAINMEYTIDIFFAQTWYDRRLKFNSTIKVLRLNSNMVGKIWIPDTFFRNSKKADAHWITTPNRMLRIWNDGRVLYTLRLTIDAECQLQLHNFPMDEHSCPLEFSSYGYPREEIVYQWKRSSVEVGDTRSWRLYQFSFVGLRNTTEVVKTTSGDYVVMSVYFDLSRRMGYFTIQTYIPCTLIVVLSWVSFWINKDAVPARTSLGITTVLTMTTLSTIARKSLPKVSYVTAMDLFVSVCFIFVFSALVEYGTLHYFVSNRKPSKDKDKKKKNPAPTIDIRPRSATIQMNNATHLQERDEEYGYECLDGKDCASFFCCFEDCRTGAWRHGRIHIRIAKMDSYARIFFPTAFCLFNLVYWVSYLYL
T5 sequence (P62813 whole entry): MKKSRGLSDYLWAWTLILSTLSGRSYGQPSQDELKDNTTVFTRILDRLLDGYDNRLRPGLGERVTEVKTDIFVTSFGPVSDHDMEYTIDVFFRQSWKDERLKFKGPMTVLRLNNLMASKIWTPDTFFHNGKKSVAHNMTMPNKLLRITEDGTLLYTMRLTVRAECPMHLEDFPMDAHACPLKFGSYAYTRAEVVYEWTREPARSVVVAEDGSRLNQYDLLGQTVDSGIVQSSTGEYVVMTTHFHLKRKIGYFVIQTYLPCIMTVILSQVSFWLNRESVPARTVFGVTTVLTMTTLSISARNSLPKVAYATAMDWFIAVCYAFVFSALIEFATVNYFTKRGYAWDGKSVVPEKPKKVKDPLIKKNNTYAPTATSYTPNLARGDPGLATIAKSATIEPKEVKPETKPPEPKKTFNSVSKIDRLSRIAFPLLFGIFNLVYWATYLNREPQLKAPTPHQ
T5 sequence (P63079 whole entry): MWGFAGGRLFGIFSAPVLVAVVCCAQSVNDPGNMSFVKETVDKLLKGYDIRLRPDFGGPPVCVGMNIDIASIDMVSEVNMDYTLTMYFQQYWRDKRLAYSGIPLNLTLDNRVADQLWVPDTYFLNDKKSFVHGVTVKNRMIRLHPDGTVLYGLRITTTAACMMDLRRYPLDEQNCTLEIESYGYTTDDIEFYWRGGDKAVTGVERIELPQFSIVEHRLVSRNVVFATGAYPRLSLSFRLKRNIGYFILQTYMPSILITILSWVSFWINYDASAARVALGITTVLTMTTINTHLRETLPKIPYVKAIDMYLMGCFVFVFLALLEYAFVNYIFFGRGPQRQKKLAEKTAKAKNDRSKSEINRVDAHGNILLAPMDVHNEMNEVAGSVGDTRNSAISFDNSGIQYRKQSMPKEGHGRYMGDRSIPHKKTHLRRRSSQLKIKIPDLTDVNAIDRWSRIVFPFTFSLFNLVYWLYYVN
T2 sequence (P18508 whole entry): as the sequence (P18508 whole entry) above
T2 sequence (P30191 whole entry): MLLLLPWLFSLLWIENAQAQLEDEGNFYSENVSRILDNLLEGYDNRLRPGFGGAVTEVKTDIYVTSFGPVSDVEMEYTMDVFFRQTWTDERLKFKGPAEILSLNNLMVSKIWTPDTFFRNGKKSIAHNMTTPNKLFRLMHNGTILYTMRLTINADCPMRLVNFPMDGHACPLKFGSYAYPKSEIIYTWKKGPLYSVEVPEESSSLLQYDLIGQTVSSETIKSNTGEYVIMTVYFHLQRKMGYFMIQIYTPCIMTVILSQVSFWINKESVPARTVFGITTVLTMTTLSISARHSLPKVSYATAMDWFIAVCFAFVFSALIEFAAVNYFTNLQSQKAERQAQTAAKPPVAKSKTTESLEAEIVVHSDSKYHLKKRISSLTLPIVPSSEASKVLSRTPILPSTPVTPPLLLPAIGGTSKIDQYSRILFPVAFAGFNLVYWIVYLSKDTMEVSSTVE
T2 sequence (P63079 whole entry): as the sequence (P63079 whole entry) above

- Efficacy [1]: 89%
- EC50 [2]: 0.001 µM
- %max [3]: 230%
- %max [4]: 30%
- %max [5]: 342%
- Efficacy [6]: 320%
- Efficacy [7]: 101%
- Efficacy [8]: 65%
- EC50 [9]: 6 µM
- Efficacy [10]: 95%
- Efficacy [11]: 210%
- %max [12]: 70%
- Efficacy [13]: 185%
- Efficacy [14]: 46%
- Efficacy [15]: 5%
- Efficacy [16]: 1%
- Efficacy [17]: 186%
- Efficacy [18]: 109%
- Efficacy [19]: 17%
- Efficacy [20]: 5%
- Efficacy [21]: 1%
- EC50 [22]: 10 µM
- EC50 [23]: 24 µM
Compound: COc1ccc(-n2nc3c4ccc(Br)cc4[nH]cc-3c2=O)cc1
